7 molecules from patent publication US7348017B2, “Dithiazole compounds, matrix metalloprotease inhibitors and external preparations for the skin” (Shiseido Co., Ltd., priority 2001, dated 2008) can be followed below.

Each structure is given as a SMILES string.

The target in this assay is T1, MMP-9 (crude enzyme solution derived from a mouse skin) (Mus musculus, UniProt P41245).
T1 construct: crude enzyme solution derived from a mouse skin; from tissue; host or cells: mouse skin
T1 sequence (P41245 108-730): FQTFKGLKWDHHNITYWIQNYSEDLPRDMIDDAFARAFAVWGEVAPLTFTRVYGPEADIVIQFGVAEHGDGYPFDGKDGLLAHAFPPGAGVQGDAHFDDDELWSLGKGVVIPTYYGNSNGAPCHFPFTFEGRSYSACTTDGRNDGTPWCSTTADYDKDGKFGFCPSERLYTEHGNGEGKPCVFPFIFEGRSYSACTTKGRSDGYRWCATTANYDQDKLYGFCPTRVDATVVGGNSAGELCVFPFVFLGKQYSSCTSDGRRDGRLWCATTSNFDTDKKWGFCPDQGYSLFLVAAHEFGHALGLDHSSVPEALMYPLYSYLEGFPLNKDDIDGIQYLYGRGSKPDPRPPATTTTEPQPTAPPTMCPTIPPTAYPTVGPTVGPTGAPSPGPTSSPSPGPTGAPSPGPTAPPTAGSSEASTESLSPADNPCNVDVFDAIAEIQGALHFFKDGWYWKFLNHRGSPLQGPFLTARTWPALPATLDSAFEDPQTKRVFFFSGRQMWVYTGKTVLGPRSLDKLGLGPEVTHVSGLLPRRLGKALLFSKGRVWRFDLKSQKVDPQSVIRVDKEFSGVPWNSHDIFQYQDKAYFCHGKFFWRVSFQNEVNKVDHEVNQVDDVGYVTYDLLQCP
The assay is described as follows: Gelatinase group MMPs inhibition test (gelatin zymography). The following applies: sample solution 100 μM; gel incubated overnight; size of MMP-9 band compared with control solution. The arrangement: key: ⊚: The band disappeared.; ◯: The band was slightly confirmed.; Δ: The band became narrower than control.; ×: Unchanged. Type of assay: biochemical. Here is the method: A test material was dissolved in dimethyl sulfoxide (DMSO) to the concentration of 10 mM, to prepare a stock solution. The stock solution was diluted with a measuring buffer (0.05M tris at pH 7.5 containing 0.2M NaCl and 5 mM CaCl2) to adjust the concentration to 100 μM, which was used as a sample solution. As a control solution, a solution containing no test material was similarly prepared.
(b) Gelatinase Group MMPs Inhibition Test
As a gelatinase group enzyme, MMP-9 (crude enzyme solution derived from a mouse skin) was used. The test was performed according to a gelatin zymography method (“Bio-antioxidant provitamin C”, Nobuhiko Miwa ed., p.76, 1999, Fragrance Journal, Tokyo).
That is, a gel containing gelatin in which a predetermined amount of the crude enzyme solution had been subjected to electrophoresis in advance, was incubated overnight with a sample solution or a control solution. After the gel was stained, the appearing band corresponding to MMP-9 was evaluated by a decrease when its size compared with that of a band of control solution. Evaluation criteria was as follows: • ⊚: The band disappeared. • ◯: The band was slightly confirmed. • Δ: The band became narrower than control. • ×: Unchanged.
Consider `COc1ccc(S(=O)(=O)N(CC(=O)Nc2nc(=S)ss2)Cc2ccccc2)cc1` [Compound 1, 2-{Benzyl[(4-methoxyphenyl)sulfonyl]amino}-N-(3-thioxo-3H-1,2,4-dithiazol-5-yl) acetoamide], for which the “MMPs Inhibition” value is on record as “◯”. As for `O=C(Cc1cccc(OCc2ccc(F)cc2)c1)Nc1nc(=S)ss1` [Compound 8, 2-{3-[(4-Fluorobenzyl)oxy]phenyl}-N-(3-thioxo-3H-1,2,4-dithiazol-5-yl)acetoamide], the “MMPs Inhibition” value is “◯”.

For the molecule `CC(C)C(C(=O)Nc1nc(=S)ss1)c1ccc(OCc2ccc(F)cc2)cc1` (stereo not shown) [Compound 12, 2-{4-[(4-Fluorobenzyl)oxy]phenyl}-3-methyl-N-(3-thioxo-3H-1,2,4-dithiazol-5-yl)butanamide], the “MMPs Inhibition” value is “⊚”.

For `O=C(Cc1ccccc1OCc1ccc(F)cc1)Nc1nc(=S)ss1` [Compound 7, 2-{2-[(4-Fluorobenzyl)oxy]phenyl}-N-(3-thioxo-3H-1,2,4-dithiazol-5-yl)acetoamide], the “MMPs Inhibition” value was “◯”. With `CC(C)=CCC/C(C)=C/COc1ccc(CC(=O)Nc2nc(=S)ss2)cc1` [Compound 2, 2-{4-[(3,7-Dimethyl-2,6-octadienyl)oxy]phenyl}-N-(3-thioxo-3H-1,2,4-dithiazol-5-yl)acetoamide], the “MMPs Inhibition” value is reported as “◯”. For the molecule `O=C(Cc1ccc(OCc2ccc(F)cc2)cc1)Nc1nc(=S)ss1` [Compound 5, 2-{4-[(4-Fluorobenzyl)oxy]phenyl}-N-(3-thioxo-3H-1,2,4-dithiazol-5-yl)acetoamide], the “MMPs Inhibition” value is “◯”.

As for `O=C(Cc1cc(OCc2ccc(F)cc2)cc(OCc2ccc(F)cc2)c1)Nc1nc(=S)ss1` [Compound 9, 2-{3,5-Bis[(4-fluorobenzyl)oxy]phenyl}-N-(3-thioxo-3H-1,2,4-dithiazol-5-yl)acetoamide], the “MMPs Inhibition” value is “◯”.
